# Laboratory results as given in PubChem BioAssay AID248 (DTP/NCI, 2004).
# “And” between values parts separate entries of the source, which are not always exact repeats. Identical values can stand only once. Toxic doses and inconclusive results are not listed.
# System: L1210 leukemia ip in BDF1 mice, survival T/C
# Test: NCI In Vivo Anticancer Drug Screen. Data for tumor model L1210 Leukemia (intraperitoneal) in B6D2F1 (BDF1) mice
# Details: endpoint: mean survival time, higher = longer survival
# How it was run: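 In this screen, tumor-bearing mice given compound are compared to those given vehicle, and their survival values are reported as a treated-to-control quotient.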
# [1] = dose: 100.0 mg/kg/injection, schedule: Q04DX002 (ip), vehicle: Klucel (hydroxypropylcellulose) (HPC)
# [2] = dose: 100.0 mg/kg/injection, schedule: Q01DX001 (ip), vehicle: Klucel (hydroxypropylcellulose) (HPC)
# [3] = dose: 200.0 mg/kg/injection, schedule: Q01DX001 (ip), vehicle: Klucel (hydroxypropylcellulose) (HPC)
# [4] = dose: 100.0 mg/kg/injection, schedule: Q04DX003 (ip), vehicle: saline
# [5] = dose: 200.0 mg/kg/injection, schedule: Q04DX003 (ip), vehicle: saline
# [6] = dose: 400.0 mg/kg/injection, schedule: Q04DX003 (ip), vehicle: saline
# [7] = dose: 100.0 mg/kg/injection, schedule: Q04DX003 (ip), vehicle: Klucel (hydroxypropylcellulose) (HPC)
# [8] = dose: 200.0 mg/kg/injection, schedule: Q04DX003 (ip), vehicle: Klucel (hydroxypropylcellulose) (HPC)
# [9] = dose: 400.0 mg/kg/injection, schedule: Q04DX003 (ip), vehicle: Klucel (hydroxypropylcellulose) (HPC)
# [10] = dose: 100.0 mg/kg/injection, schedule: Q04DX003 (ip), vehicle: saline with Tween-80
# [11] = dose: 200.0 mg/kg/injection, schedule: Q04DX003 (ip), vehicle: saline with Tween-80
# [12] = dose: 100.0 mg/kg/injection, schedule: Q01DX009 (ip), vehicle: Klucel (hydroxypropylcellulose) (HPC)
# [13] = dose: 200.0 mg/kg/injection, schedule: Q01DX009 (ip), vehicle: Klucel (hydroxypropylcellulose) (HPC)
# [14] = dose: 400.0 mg/kg/injection, schedule: Q01DX009 (ip), vehicle: Klucel (hydroxypropylcellulose) (HPC)
# [15] = dose: 400.0 mg/kg/injection, schedule: Q01DX001 (ip), vehicle: Klucel (hydroxypropylcellulose) (HPC)
# [16] = dose: 100.0 mg/kg/injection, schedule: Q01DX009 (ip), vehicle: saline with Tween-80
# [17] = dose: 200.0 mg/kg/injection, schedule: Q01DX009 (ip), vehicle: saline with Tween-80
# [18] = dose: 400.0 mg/kg/injection, schedule: Q01DX009 (ip), vehicle: saline with Tween-80
# [19] = dose: 100.0 mg/kg/injection, schedule: Q01DX001 (ip), vehicle: saline
# [20] = dose: 200.0 mg/kg/injection, schedule: Q01DX001 (ip), vehicle: saline
structure (smiles),measurement,setting,value
CCCCCCCN1CCC(C(=O)CC)(c2cccc(O)c2)CC1,T/C,"dose: 12.5 mg/kg/injection, schedule: Q01DX009 (ip), vehicle: Klucel (hydroxypropylcellulose) (HPC)",106 % of control
same,T/C,"dose: 25.0 mg/kg/injection, schedule: Q01DX009 (ip), vehicle: Klucel (hydroxypropylcellulose) (HPC)",98 % of control
same,T/C,"dose: 50.0 mg/kg/injection, schedule: Q01DX009 (ip), vehicle: Klucel (hydroxypropylcellulose) (HPC)",93 % of control and 87 % of control
same,T/C,[1],93 % of control
CN(C(=O)NCCCl)C1CCC(C(=O)O)CC1 (stereo unspecified),T/C,[2],92 % of control
same,T/C,[3],88 % of control
O=C(Nc1ccc(C(=O)Nc2ccc(C3=NCCN3)cc2)cc1)Nc1ccc(C2=NCCN2)cc1,T/C,"dose: 1.88 mg/kg/injection, schedule: Q01DX Z (ip), vehicle: saline",117 % of control
same,T/C,"dose: 3.75 mg/kg/injection, schedule: Q01DX Z (ip), vehicle: saline",117 % of control
same,T/C,"dose: 7.5 mg/kg/injection, schedule: Q01DX Z (ip), vehicle: saline",123 % of control
same,T/C,"dose: 30.0 mg/kg/injection, schedule: Q01DX Z (ip), vehicle: carboxymethylcellulose (CMC)",166 % of control
same,T/C,"dose: 30.0 mg/kg/injection, schedule: Q01DX Z (sc), vehicle: saline",97 % of control
same,T/C,"dose: 44.0 mg/kg/injection, schedule: Q01DX007 (oral), vehicle: carboxymethylcellulose (CMC)",103 % of control
same,T/C,"dose: 60.0 mg/kg/injection, schedule: Q01DX Z (ip), vehicle: carboxymethylcellulose (CMC)",218 % of control
same,T/C,"dose: 60.0 mg/kg/injection, schedule: Q01DX Z (sc), vehicle: saline",109 % of control
same,T/C,"dose: 62.5 mg/kg/injection, schedule: Q01DX010 (oral), vehicle: saline",109 % of control
same,T/C,"dose: 88.0 mg/kg/injection, schedule: Q01DX007 (oral), vehicle: carboxymethylcellulose (CMC)",101 % of control
same,T/C,"dose: 120.0 mg/kg/injection, schedule: Q01DX Z (ip), vehicle: carboxymethylcellulose (CMC)",192 % of control
same,T/C,"dose: 120.0 mg/kg/injection, schedule: Q01DX Z (sc), vehicle: saline",120 % of control
same,T/C,"dose: 125.0 mg/kg/injection, schedule: Q01DX010 (oral), vehicle: saline",108 % of control
same,T/C,"dose: 175.0 mg/kg/injection, schedule: Q01DX007 (oral), vehicle: carboxymethylcellulose (CMC)",101 % of control
same,T/C,"dose: 240.0 mg/kg/injection, schedule: Q01DX Z (sc), vehicle: saline",154 % of control
same,T/C,"dose: 250.0 mg/kg/injection, schedule: Q01DX010 (oral), vehicle: saline",106 % of control
same,T/C,"dose: 350.0 mg/kg/injection, schedule: Q01DX007 (oral), vehicle: carboxymethylcellulose (CMC)",100 % of control
same,T/C,"dose: 500.0 mg/kg/injection, schedule: Q01DX010 (oral), vehicle: saline",106 % of control
same,T/C,"dose: 700.0 mg/kg/injection, schedule: Q01DX007 (oral), vehicle: carboxymethylcellulose (CMC)",100 % of control
O=C(O)C(C=C(Cl)Cl)N1CCCCC1 (stereo unspecified),T/C,[4],98 % of control
same,T/C,[5],93 % of control
same,T/C,[6],94 % of control
Oc1nc(/N=C2/N=c3ccc(Cl)cc3=N2)[nH]c1O,T/C,[7],98 % of control
same,T/C,[8],106 % of control
same,T/C,[9],98 % of control
Nc1nc2c(ncn2-c2cccc(-c3ccccc3)c2)c(=O)[nH]1,T/C,"dose: 25.0 mg/kg/injection, schedule: Q04DX003 (ip), vehicle: saline with Tween-80",100 % of control
same,T/C,"dose: 50.0 mg/kg/injection, schedule: Q04DX003 (ip), vehicle: saline with Tween-80",102 % of control
same,T/C,[10],100 % of control
same,T/C,[11],87 % of control
Cc1cc(Cl)c(C)c(Cl)c1Cl,T/C,"dose: 100.0 mg/kg/injection, schedule: Q01DX001 (ip), vehicle: acetone",100 % of control
same,T/C,"dose: 100.0 mg/kg/injection, schedule: Q01DX009 (ip), vehicle: acetone",92 % of control
same,T/C,"dose: 100.0 mg/kg/injection, schedule: Q04DX003 (ip), vehicle: acetone",93 % of control
same,T/C,"dose: 200.0 mg/kg/injection, schedule: Q01DX001 (ip), vehicle: acetone",97 % of control
same,T/C,"dose: 200.0 mg/kg/injection, schedule: Q01DX009 (ip), vehicle: acetone",95 % of control
same,T/C,"dose: 200.0 mg/kg/injection, schedule: Q04DX003 (ip), vehicle: acetone",97 % of control
same,T/C,"dose: 400.0 mg/kg/injection, schedule: Q01DX001 (ip), vehicle: acetone",90 % of control
same,T/C,"dose: 400.0 mg/kg/injection, schedule: Q01DX009 (ip), vehicle: acetone",95 % of control
same,T/C,"dose: 400.0 mg/kg/injection, schedule: Q04DX003 (ip), vehicle: acetone",92 % of control
NS(=O)(=O)c1ccc(N=Cc2cc(Cl)cc(Cl)c2O)cc1,T/C,[12],101 % of control
same,T/C,[13],106 % of control
same,T/C,[14],106 % of control
CCCCCCCC(=O)N1C(=O)CCC1C(=O)NCC(=O)NCC(=O)OCc1ccccc1 (stereo unspecified),T/C,[2],95 % of control
same,T/C,[3],98 % of control
same,T/C,[15],91 % of control
BrC1(C2(Br)N(c3ccccc3)CCN2c2ccccc2)N(c2ccccc2)CCN1c1ccccc1,T/C,"dose: 7.5 mg/kg/injection, schedule: Q01DX001 (ip), vehicle: saline",105 % of control
same,T/C,"dose: 7.5 mg/kg/injection, schedule: Q04DX003 (ip), vehicle: saline",108 % of control
same,T/C,"dose: 15.0 mg/kg/injection, schedule: Q01DX001 (ip), vehicle: saline",105 % of control
same,T/C,"dose: 15.0 mg/kg/injection, schedule: Q04DX003 (ip), vehicle: saline",106 % of control
same,T/C,"dose: 30.0 mg/kg/injection, schedule: Q01DX001 (ip), vehicle: saline",112 % of control
same,T/C,"dose: 30.0 mg/kg/injection, schedule: Q04DX003 (ip), vehicle: saline",100 % of control
Cc1cccc(NC(=O)NCCOC(=O)OCCNC(=O)Nc2cccc(C)c2C)c1C,T/C,[16],97 % of control
same,T/C,[10],91 % of control
same,T/C,[17],98 % of control
same,T/C,[11],91 % of control
same,T/C,[18],97 % of control
same,T/C,"dose: 400.0 mg/kg/injection, schedule: Q04DX003 (ip), vehicle: saline with Tween-80",106 % of control
Nc1nccc2n[nH]nc12,T/C,[2],100 % of control
same,T/C,[7],103 % of control
same,T/C,[3],92 % of control
same,T/C,[8],101 % of control
same,T/C,[15],97 % of control
same,T/C,[9],101 % of control
CCCN(CCC)CP(=S)(CN(CCC)CCC)CN(CCC)CCC,T/C,[19],92 % of control
same,T/C,[20],90 % of control
COc1ccccc1NC(=O)c1ccc(Cl)cc1,T/C,[12],91 % of control
same,T/C,[7],105 % of control
same,T/C,[13],98 % of control
same,T/C,[8],108 % of control
same,T/C,[14],102 % of control
same,T/C,[9],97 % of control
Cc1ccc(Cl)cc1NC(=O)c1ccccc1Cl,T/C,[12],100 % of control
same,T/C,"dose: 100.0 mg/kg/injection, schedule: Q01DX009 (ip), vehicle: saline",100 % of control
same,T/C,[4],95 % of control
same,T/C,[13],94 % of control
same,T/C,"dose: 200.0 mg/kg/injection, schedule: Q01DX009 (ip), vehicle: saline",105 % of control
same,T/C,[5],122 % of control
same,T/C,[14],87 % of control
same,T/C,"dose: 400.0 mg/kg/injection, schedule: Q01DX009 (ip), vehicle: saline",100 % of control
same,T/C,[6],111 % of control
N#CC(c1ccc(Cl)cc1)c1ccccn1 (stereo unspecified),T/C,"dose: 75.0 mg/kg/injection, schedule: Q04DX003 (ip), vehicle: other",96 % of control
same,T/C,"dose: 150.0 mg/kg/injection, schedule: Q04DX003 (ip), vehicle: other",96 % of control
same,T/C,"dose: 300.0 mg/kg/injection, schedule: Q04DX003 (ip), vehicle: other",94 % of control
O=C1c2cccc3c([N+](=O)[O-])ccc(c23)C(=O)N1Cc1ccco1,T/C,[1],108 % of control
same,T/C,"dose: 200.0 mg/kg/injection, schedule: Q04DX002 (ip), vehicle: Klucel (hydroxypropylcellulose) (HPC)",97 % of control
same,T/C,"dose: 400.0 mg/kg/injection, schedule: Q04DX002 (ip), vehicle: Klucel (hydroxypropylcellulose) (HPC)",102 % of control
Nc1ccccc1C(O)c1ccccc1 (stereo unspecified),T/C,[19],104 % of control
same,T/C,[20],106 % of control
COc1ccccc1OCC(C)=O,T/C,[16],95 % of control
same,T/C,[17],105 % of control
same,T/C,[18],105 % of control
